We go through 25 compounds from US8772290B2, “Alpha-arylmethoxyacrylate derivative, preparation method thereof, and pharmaceutical composition containing same” (Oscotech Inc., priority 2010, dated 2014).

Each structure is given as a SMILES string.

The assay relates to HIF. The experiment in a line: Assay for inhibitory activity against HIF activity (HIF1 luciferase reporter cell line). The assay is classed as cell-based, human. The note with it: Homo sapiens; HEK293 HIF1 reporter cell line, 1% oxygen, 6 hours, luciferase activity 50% inhibited. The source says:
In order to assay the compounds of the present invention for inhibitory activity against HIF activity, the HIF1 reporter plasmid (Panomics) that is designed to control the expression of luciferase by HIF was employed. The HIF1 reporter plasmid and the pTK-Hyg plasmid (Clontech), which carries a hygromycin resistant gene, were co-transfected into the HEK293 cell line (the Korean Cell Line Bank, KCLB No. 21573), derived from the human kidney, with the aid of Effectene transfection reagent (Qiagen). Then, the cells were cultured for 3 weeks on a medium containing 200 μg/mL hygromycin to select transformants resistant to hygromycin. The cell colonies derived from single cells were transferred to 24-well plates to secure a reporter cell line. The cells were seeded at a density of 4×10^4 cells/well into 96-well plates containing DMEM and incubated for 24 hours before treatment with the compounds of the present invention at a concentration of 25 μM, 5 μM, 1 μM, 200 nM, 40 nM, 8 nM, 1.6 nM, 320 pM, 64 pM, 12.8 pM, 2.56 pM, 512 fM, 102 fM, 20.4 fM, or an amount between any two concentrations above as shown in FIGS. 1A to 1C. Under 1% oxygen condition, the cells were incubated for 6 hours and then, the medium was removed. The cells were lyzed by incubation for 5 min with 100 μL of the mixture of Bright-Glo™ luciferase assay buffer and Bright-Glo™ luciferase assay substrate (Promega). The whole cell lysate was transferred to 96-well, white plates (PerkinElmer) and measured for luminescence using Victor™ 3 (PerkinElmer). From the luminescence measurements, IC50 (a concentration of the compound at which luciferase activity was 50% inhibited) was calculated using the GraphPad Prism™ 4 program. The results are summarized in Table 2 and illustrated in FIGS. 1A to 1C.
On the technique in general: A reporter such as luciferase makes a cellular process visible.

With `CO/C=C(/C(=O)OC)c1ccccc1COc1cc(C=O)ccc1OC` [Compound 6, (E)-methyl 2-(2-((5-formyl-2-methoxyphenoxy)methyl)phenyl)-3-methoxyacrylate], the IC50 (usually the concentration that gives 50% inhibition) turned out to be 14600 nM.

For `CCCO/N=C(\C)c1ccc(OC)c(OCc2ccccc2/C(=C\OC)C(=O)OC)c1` [Compound 42, (E)-methyl 2-(2-((2-methoxy-5-((E)-1-(propoxyimino)ethyl)phenoxy)-methyl)phenyl)-3-methoxyacrylate], the IC50 was 5070 nM.

Consider `CO/C=C(/C(=O)OC)c1ccccc1COc1cc(C)c(/C=N/OCC2CC2)cc1C` [Compound 68, (E)-methyl 2-(2-((4-((E)-(cyclopropylmethoxyimino)methyl)-2,5-dimethylphenoxy)methyl)phenyl)-3-methoxyacrylate], for which 7 nM corresponded to half-maximal inhibition (IC50).

`CO/C=C(/C(=O)OC)c1ccccc1COc1cc(C)cc(OCc2ccccc2)c1C` [Compound 41, (E)-methyl 2-(2-((3-(benzyloxy)-2,5-dimethylphenoxy)methyl)phenyl)-3-methoxyacrylate] displayed a half-maximal inhibitory concentration (IC50) of 6120 nM.

Take `CO/C=C(/C(=O)OC)c1ccccc1COc1cc(F)cc(OCc2ccc([N+](=O)[O-])cc2)c1` [Compound 24, (E)-methyl 2-(2-((3-fluoro-5-(4-nitrobenzyloxy)phenoxy)methyl)phenyl)-3-methoxyacrylate]: half-maximal inhibition (IC50) required 640 nM.

The compound `CO/C=C(/C(=O)OC)c1ccccc1COc1c(F)cc(/C=N/OCCc2ccccc2)cc1OC` [Compound 66, (E)-methyl 2-(2-((2-fluoro-6-methoxy-4-((E)-(phenethoxyimino)methyl)-phenoxy)methyl)phenyl)-3-methoxyacrylate] displayed an IC50 of 900 nM.

The compound `CO/C=C(/C(=O)OC)c1ccccc1COc1cccc(OCCNCCO)c1` [Compound 11, (E)-methyl 2-(2-((3-(2-(2-hydroxyethylamino)ethoxy)phenoxy)methyl)-phenyl)-3-methoxyacrylate] yielded an IC50 of 640 nM.

`CO/C=C(/C(=O)OC)c1ccccc1COc1cc(C)cc(OCCOc2ccccc2)c1C` [Compound 56, (E)-methyl 2-(2-((2,5-dimethyl-3-(2-phenoxyethoxy)phenoxy)methyl)-phenyl)-3-methoxyacrylate]: the IC50 was 2140 nM.

As to `CCCO/N=C(\CC)c1cc(C)c(OCc2ccccc2/C(=C\OC)C(=O)OC)cc1C` [Compound 1, (E)-methyl 2-(2-((2,5-dimethyl-4-((E)-1-(propoxyimino)propyl)phenoxy)-methyl)phenyl)-3-methoxyacrylate], the IC50 turned out to be 1 nM.

`CO/C=C(/C(=O)OC)c1ccccc1COc1ccc(/C(C)=N/OCCN2CCCCC2)cc1` [Compound 9, (E)-methyl 2-(2-((4-((E)-1-(2-(piperidin-1-yl)ethoxyimino)ethyl)phenoxy)-methyl)phenyl)-3-methoxyacrylate] yielded an IC50 of 6410 nM.

`CO/C=C(/C(=O)OC)c1ccccc1COc1cc(C)c(/C=N/OCc2ccccn2)cc1C` [Compound 73, (E)-methyl 2-(2-((4-((E)-(pyridin-2-ylmethoxyimino)methyl)-2,5-dimethylphenoxy)methyl)phenyl)-3-methoxyacrylate] registered an IC50 of 30 nM.

For `CO/C=C(/C(=O)OC)c1ccccc1COc1cc(C)c(/C=N/OCCN2CCCCC2)cc1C` [Compound 54, (E)-methyl 2-(2-((2,5-dimethyl-4-((E)-(2-(piperidin-1-yl)ethoxyimino)-methyl)phenoxy)methyl)phenyl)-3-methoxyacrylate], the IC50 turned out to be 6630 nM.

`CCCO/N=C(\C)c1cc(C)c(OCc2ccccc2/C(=C\OC)C(=O)OC)cc1C` [Compound 2, (E)-methyl 2-(2-((2,5-dimethyl-4-((E)-1-(propoxyimino)ethyl)phenoxy)-methyl)phenyl)-3-methoxyacrylate]: 1 nM corresponded to half-maximal inhibition (IC50).

`CO/C=C(/C(=O)OC)c1ccccc1COc1cc(/C(C)=N/Nc2ccccc2)ccc1OC` [Compound 48, (E)-methyl 2-(2-((2-methoxy-5-((E)-1-(phenylhydrazono)ethyl)phenoxy)-methyl)phenyl)-3-methoxyacrylate] had an IC50 of 8580 nM.

Compound `CCCO/N=C/c1ccc(OC)c(OCc2ccccc2/C(=C\OC)C(=O)OC)c1` [Compound 43, (E)-methyl 2-(2-((2-methoxy-5-((E)-(propoxyimino)methyl)phenoxy)-methyl)phenyl)-3-methoxyacrylate] showed an IC50 of 960 nM.

In turn, `CO/C=C(/C(=O)OC)c1ccccc1COc1cc(C)c(-c2cnco2)cc1C` [Compound 81, (E)-methyl 3-methoxy-2-(2-((2,5-dimethyl-4-(oxazol-5-yl)phenoxy)-methyl)phenyl)acrylate] yielded an IC50 of 37 nM.

For `CO/C=C(/C(=O)OC)c1ccccc1COc1c(F)cc(/C=N/OCc2ccccc2)cc1OC` [Compound 61, (E)-methyl 2-(2-((4-((E)-(benzyloxyimino)methyl)-2-fluoro-6-methoxyphenoxy)methyl)phenyl)-3-methoxyacrylate], the IC50 was found to be 5540 nM.

Consider `CO/C=C(/C(=O)OC)c1ccccc1COc1ccc(/C(C)=N/OCCc2ccccc2)cc1` [Compound 18, (E)-methyl 2-(2-((4-((E)-1-(phenethoxyimino)ethyl)phenoxy)methyl)-phenyl)-3-methoxyacrylate], for which half-maximal inhibition (IC50) was put at 400 nM.

On to `CO/C=C(/C(=O)OC)c1ccccc1COc1cc(C)c(/C=N/OCc2ccncc2)cc1C` [Compound 74, (E)-methyl 2-(2-((4-((E)-(pyridin-4-ylmethoxyimino)methyl)-2,5-dimethylphenoxy)methyl)phenyl)-3-methoxyacrylate], for which the half-maximal inhibitory concentration (IC50) was determined as 60 nM.

`CO/C=C(/C(=O)OC)c1ccccc1COc1cc(O)cc(OCc2ccccn2)c1` [Compound 28, (E)-methyl 2-(2-((3-hydroxy-5-(pyridin-2-ylmethoxy)phenoxy)methyl)-phenyl)-3-methoxyacrylate] had an IC50 of 710 nM.

For the compound `CO/C=C(/C(=O)OC)c1ccccc1COc1cc(C)cc(O)c1C` [Compound 55, (E)-methyl 2-(2-((3-hydroxy-2,5-dimethylphenoxy)methyl)phenyl)-3-methoxyacrylate], half-maximal inhibition (IC50) was put at 3690 nM.

Compound `CO/C=C(/C(=O)OC)c1ccccc1COc1cc(C)c(-c2ccn(C)n2)cc1C` [Compound 82, (E)-methyl 3-methoxy-2-(2-((2,5-dimethyl-4-(1-methyl-1H-pyrazol-3-yl)phenoxy)methyl)phenyl)acrylate] returned an IC50 of 2 nM.

Compound `CO/C=C(/C(=O)OC)c1ccccc1COc1cc(C)c(/C=N/OCc2ccccc2)cc1C` [Compound 50, (E)-methyl 2-(2-((4-((E)-(benzyloxyimino)methyl)-2,5-dimethylphenoxy)-methyl)phenyl)-3-methoxyacrylate] registered an IC50 of 70 nM.

Regarding `CCCO/N=C/c1cc(F)c(OCc2ccccc2/C(=C\OC)C(=O)OC)c(OC)c1` [Compound 64, (E)-methyl 2-(2-((2-fluoro-6-methoxy-4-((E)-(propoxyimino)methyl)-phenoxy)methyl)phenyl)-3-methoxyacrylate], half-maximal inhibition (IC50) was put at 2620 nM.

Consider `CO/C=C(/C(=O)OC)c1ccccc1COc1cc(/C=N/Oc2ccccc2)ccc1OC` [Compound 46, (E)-methyl 2-(2-((2-methoxy-5-((E)-1-(phenoxyimino)methyl)phenoxy)-methyl)phenyl)-3-methoxyacrylate], for which half-maximal inhibition (IC50) required 170 nM.
